Results on four molecules are retold here after patent US10717090B2, “Depression of copper and iron sulfides in molybdenite flotation circuits” (TESSENDERLO KERLEY, INC., priority 2014, dated 2020).

A short description of data set [1]: H2S evolution vs. pH in simulated flotation process (headspace analysis). It is filed as physicochemical. As to conditions: pH adjusted to between 9 and 9.5, ambient temperature. As for the experimental part:
The H2S evolution due to the decomposition of depressant reagents during storage, handling and application presents the highest associated hazard with regards to health and safety (HSE). Testing of TKI's Alkaline Polysulfide products against the standard (NaHS reagent) was conducted in a simulated flotation process using lab apparatus to determine the amount of H2S evolved at various pH's. The tests were conducted using the following testing protocol; • All tests were ran at ambient temperatures using tap water. Add 500 ml of tap water to […] glass apparatus, check pH and temp, start and maintain stirring throughout test. • Add Ca(OH)2 to raise pH to approximately 10.5 • Add 5 mL of reagent. • Allow to stabilize for 2 min, with cracking of stopper to equilibrate at 1 min. • Check pH, temperature and H2S in VP using analyzer. • Add H2SO4 to decrease pH to ˜9. • Allow to stabilize for 2 min, with cracking of stopper to equilibrate at 1 min. • Check pH, temperature and H2S in VP using analyzer. • Repeat last three Steps for pH 9, 8 and 7 if applicable.
Note the H2S in the vapor phase above the polysulfide samples increased to 1500 ppm at pH near 8.2, while this 1500 ppm level was reached by NaHS samples at pH 9.1 to 9.3. […] This would translate into a less hazardous environment in applications where the process is run ran at lower pH's (˜9) utilizing for example CO2 as a flotation medium or modifying agent.
Values above 1500 ppm are lower limits, as the H2S meter maximum reading was 2000 PPM. […] Therefore, this invention may show significant health and safety benefits even at pH near 8.

Data set [2] deals with mammals. As to conditions: cited from earlier work.

Sodium Polysulfide [NaPS]: the “H2S in vapor phase” value in data set [1] is “remained low”.
The same measure, in the same setting: then `S` [NaHS, Sodium hydrosulfide, reference compound], with 1500 ppm.
On to Calcium Polysulfide [CaPS], for which, in data set [1], the “H2S in vapor phase” value is given as “remained low”. For the same molecule, the LD50 entry in data set [2] is recorded as “about 0.8 grams per kilogram of body weight”.
With Potassium Polysulfide [KPS], the “H2S in vapor phase” value in data set [1] is reported as “presumably KPS remained low”.
